Results as given in PubChem BioAssay AID485374 (Sanford-Burnham Center for Chemical Genomics, 2010).
Where “and” joins values, the source holds several entries; their conditions need not be identical. Identical values can stand only once. Calls of active or inactive are those of the source. The rule behind the calls is not given here.

Assay: inhibitors of enzymatic SUMO conjugation, SAR follow-up, biochemical, AlphaScreen (AID 485374)
Settings: AlphaScreen biochemical SUMOylation assay

Structure (SMILES)	IC50
COc1ccc2c(c1)C(NC(C)=O)C(=O)N2CC1COc2ccccc2O1 (configuration not stated)	66.3 µM
CCCCn1c(NC(=O)c2ccco2)c(C#N)c2nc3ccccc3nc21	3.45 µM
C=CC[C@@H](Nc1ccc(Cl)cc1)C12C=CC(O1)C(C(=O)OC)=C2C(=O)OC (some centres not stated)	3.84 µM
CCCCNC(=O)c1c(NC(=O)c2ccccc2)n(Cc2ccccc2)c2nc3ccccc3nc12	91.1 µM
Cc1cc(C)c2c(c1)C(=O)C(=O)N2CCN1CCOCC1	> 100 µM (inactive)
COC(=O)C1=C(C(=O)OC)C2([C@H](Cc3ccccc3)Nc3ccc(OC)cc3)C=CC1O2 (some centres not stated)	13 µM
CCCCn1c(NC(=O)c2ccccc2Cl)c(C#N)c2nc3ccccc3nc21	20.1 µM
S=c1[nH]nc(-c2cc(-c3ccccc3)n[nH]2)n1N=Cc1ccc(Br)s1	2.07 µM
COCCNC(=O)c1c(NC(=O)c2ccccc2)n(Cc2ccccc2)c2nc3ccccc3nc12	51.3 µM
CCC[C@@H](Nc1ccccc1)C12C=CC(O1)C(C(=O)OC)=C2C(=O)OC (some centres not stated)	0.533 µM
COC(=O)C1=C(C(=O)OC)C2([C@H](C)Nc3ccc(Cl)cc3)C=CC1O2 (some centres not stated)	11.5 µM
CC(=O)NC1C(=O)N(CCN2CCOCC2)c2ccc(C)cc21 (configuration not stated)	> 100 µM (inactive)
COC(=O)C1=C(C(=O)OC)C2([C@@H](Cc3ccccc3)Nc3ccc(C)cc3)C=CC1O2 (some centres not stated)	2.96 µM
CCC[C@H](Nc1ccccc1)C12C=CC(O1)C(C(=O)OC)=C2C(=O)OC (some centres not stated)	2.87 µM
COc1ccc2c(c1)C(NC(C)=O)C(=O)N2CCN1CCOCC1 (configuration not stated)	5.02 µM
CCCCn1c(NC(=O)c2ccccc2)c(S(=O)(=O)c2ccc(C)cc2)c2nc3ccccc3nc21	9.52 µM and 6.5 µM
CCCCn1c(NC(C)=O)c(C#N)c2nc3ccccc3nc21	8.11 µM
CCCCn1c(NC(=O)c2ccc(OC)cc2)c(S(=O)(=O)c2ccc(C)cc2)c2nc3ccccc3nc21	8.08 µM
COC(=O)C1=C(C(=O)OC)C2(C(Cc3ccc(OC(F)(F)F)cc3)Nc3ccccc3)C=CC1O2 (configuration not stated)	0.611 µM
C=CC[C@@H](N(Cc1ccccc1)/C(=C\C(=O)OC)C(=O)OC)C12C=CC(O1)C(C(=O)OC)=C2C(=O)OC (some centres not stated)	21.3 µM
Nc1c(C(=O)NCc2ccco2)c2nc3ccccc3nc2n1Cc1ccccc1	41.2 µM
COC(=O)C1=C(C(=O)OC)C2([C@@H](C)Nc3ccc(C)cc3)C=CC1O2 (some centres not stated)	35.1 µM
CCCCn1c(NC(=O)c2ccco2)c(S(=O)(=O)c2ccc(C)cc2)c2nc3ccccc3nc21	7.9 µM
COC(=O)[C@@H]1C2CCC([C@@H](Cc3ccccc3)Nc3ccccc3)(O2)[C@@H]1C(=O)OC (some centres not stated)	> 100 µM (inactive)
COC(=O)C1=C(C(=O)OC)C2([C@@H](C)Nc3ccc(OC)cc3)C=CC1O2 (some centres not stated)	55.6 µM
C=CC[C@H](N(Cc1ccccc1)/C(=C\C(=O)OC)C(=O)OC)C12C=CC(O1)C(C(=O)OC)=C2C(=O)OC (some centres not stated)	15.1 µM

Structure (SMILES)	IC50
C=CC[C@@H](Nc1ccc(OC)cc1)C12C=CC(O1)C(C(=O)OC)=C2C(=O)OC (some centres not stated)	22.3 µM
COC(=O)C1=C(C(=O)OC)C2([C@@H](C)Nc3ccc(Cl)cc3)C=CC1O2 (some centres not stated)	18.2 µM
COc1cc(/C=C2\C(=O)N(c3ccccc3)N=C2C)ccc1O	21.1 µM and 25.5 µM
C=CCC(Nc1ccccc1)C12C=CC(O1)C(C(=O)OC)=C2C(=O)OC (configuration not stated)	1.36 µM
N#Cc1c(NC(=O)c2ccccc2Cl)n(C2CCCCC2)c2nc3ccccc3nc12	1.95 µM
COc1ccc2c(c1)C(=O)C(=O)N2CCN1CCOCC1	76.8 µM
C=CC[C@H](Nc1ccc(C)cc1)C12C=CC(O1)C(C(=O)OC)=C2C(=O)OC (some centres not stated)	11.7 µM
C=C[C@@H](Nc1ccccc1)C12C=CC(O1)C(C(=O)OC)=C2C(=O)OC (some centres not stated)	7.23 µM
CCCC1=NN(c2ccccc2)C(=O)/C1=C\c1ccc(O)cc1	19.2 µM
COC(=O)C1=C(C(=O)OC)C2([C@H](Cc3ccc(C)cc3)Nc3ccccc3)C=CC1O2 (some centres not stated)	2.19 µM
COC(=O)C1=C(C(=O)OC)C2([C@H](Cc3ccccc3)Nc3ccc(C)cc3)C=CC1O2 (some centres not stated)	7.19 µM
CCCCn1c(NC(=O)c2ccccc2)c(C#N)c2nc3ccccc3nc21	2.93 µM and 1.2 µM
CCCCn1c(N)c(C#N)c2nc3ccccc3nc21	13.3 µM
CCCCn1c(NC(=O)c2cccc(Cl)c2)c(C#N)c2nc3ccccc3nc21	1.62 µM
COC(=O)C1=C(C(=O)OC)C2([C@@H](Cc3ccccc3)Nc3ccccc3)C=CC1O2 (some centres not stated)	0.329 µM
COC(=O)C1=C(C(=O)OC)C2(C(Cc3ccc(F)cc3)Nc3ccccc3)C=CC1O2 (configuration not stated)	0.527 µM
C=CC[C@H](Nc1ccccc1)C12C=CC(O1)C(C(=O)OC)=C2C(=O)OC (some centres not stated)	5.95 µM
c1ccc(CC(Nc2ccccc2)c2ccco2)cc1 (configuration not stated)	> 100 µM (inactive)
CCCCn1c(NC(=O)CC)c(S(=O)(=O)c2ccc(C)cc2)c2nc3ccccc3nc21	33.1 µM
COC(=O)C1=C(C(=O)OC)C2([C@@H](Cc3ccccc3)Nc3ccc(OC)cc3)C=CC1O2 (some centres not stated)	4.87 µM
N#Cc1c(NC(=O)c2ccccc2Cl)n(Cc2ccccc2)c2nc3ccccc3nc12	2.44 µM
COC(=O)C1=C(C(=O)OC)C2([C@H](Cc3ccccc3)Nc3ccc(Cl)cc3)C=CC1O2 (some centres not stated)	2.56 µM
CCC(=O)Nc1c(S(=O)(=O)c2ccccc2)c2nc3ccccc3nc2n1Cc1ccccc1	43.4 µM
COC(=O)C1=C(C(=O)OC)C2([C@@H](C)Nc3ccccc3)C=CC1O2 (some centres not stated)	7.79 µM
COc1ccc2c(c1)C(NC(C)=O)C(=O)N2CCc1ccccc1 (configuration not stated)	> 100 µM (inactive)
COc1ccc2c(c1)C(NC(C)=O)C(=O)N2CCOc1ccccc1 (configuration not stated)	70.2 µM

Structure (SMILES)	IC50
COC(=O)C=C(NC(CO)(CO)CO)C(=O)OC	> 100 µM (inactive)
COC(=O)C1=C(C(=O)OC)C2([C@H](Cc3ccccc3)Nc3ccccc3)C=CC1O2 (some centres not stated)	5.04 µM
C=CC[C@H](Nc1ccc(Cl)cc1)C12C=CC(O1)C(C(=O)OC)=C2C(=O)OC (some centres not stated)	4.18 µM
CCCCn1c(N)c(S(=O)(=O)c2ccc(C)cc2)c2nc3ccccc3nc21	> 100 µM (inactive)
CCCCn1c(NC(=O)c2ccc(Cl)cc2)c(C#N)c2nc3ccccc3nc21	2.1 µM
COC(=O)C1=C(C(=O)OC)C2([C@@H](Cc3ccc(OC)cc3)Nc3ccccc3)C=CC1O2 (some centres not stated)	0.614 µM
COC(=O)C1=C(C(=O)OC)C2([C@@H](Cc3ccccc3)Nc3ccc(Cl)cc3)C=CC1O2 (some centres not stated)	0.713 µM
CCCCn1c(NC(=O)c2ccc(F)cc2)c(S(=O)(=O)c2ccc(C)cc2)c2nc3ccccc3nc21	6.24 µM
COC(=O)C1=C(C(=O)O)C2C=CC1([C@@H](Cc1ccccc1)Nc1ccccc1)O2 (some centres not stated)	2.87 µM
COC(=O)C1=C(C(=O)OC)C2([C@@H](Cc3ccc(C)cc3)Nc3ccccc3)C=CC1O2 (some centres not stated)	0.369 µM
COc1cc(/C=C2\C(=O)N(c3ccccc3)N=C2C)ccc1OC(=O)c1cccs1	15.8 µM
C=CC[C@@H](Nc1ccc(C)cc1)C12C=CC(O1)C(C(=O)OC)=C2C(=O)OC (some centres not stated)	12.4 µM
CCCN1C(=O)C(NC(C)=O)c2cc(OC)ccc21 (configuration not stated)	> 100 µM (inactive)
COc1ccc(CN2C(=O)C(NC(C)=O)c3ccccc32)cc1 (configuration not stated)	> 100 µM (inactive)
COCCn1c(NC(=O)c2ccc(Cl)cc2)c(S(=O)(=O)c2ccc(C)cc2)c2nc3ccccc3nc21	6.59 µM
C=CC[C@@H](Nc1ccccc1)C12C=CC(O1)C(C(=O)OC)=C2C(=O)OC (some centres not stated)	1.8 µM
C=CC[C@H](Nc1ccc(OC)cc1)C12C=CC(O1)C(C(=O)OC)=C2C(=O)OC (some centres not stated)	17.7 µM
CCCCn1c(NC(=O)c2ccc(F)cc2)c(C#N)c2nc3ccccc3nc21	0.757 µM
COc1cc(/C=C2\C(=O)N(c3ccccc3)N=C2C)ccc1OCc1ccccc1	> 100 µM (inactive)
C=C[C@H](Nc1ccccc1)C12C=CC(O1)C(C(=O)OC)=C2C(=O)OC (some centres not stated)	10.4 µM
COC(=O)C1=C(C(=O)OC)C2([C@H](C)Nc3ccccc3)C=CC1O2 (some centres not stated)	23.9 µM
CCCCCn1c(NC(=O)c2ccco2)c(C(=O)OCC)c2nc3ccccc3nc21	4.9 µM
CCCCn1c(NC(=O)C2CCCCC2)c(C#N)c2nc3ccccc3nc21	2.39 µM
CCCCn1c(NC(=O)c2ccccc2Cl)c(S(=O)(=O)c2ccccc2)c2nc3ccccc3nc21	5.63 µM
C=CCC(c1ccco1)N(Cc1ccccc1)/C(=C/C(=O)OC)C(=O)OC (configuration not stated)	> 100 µM (inactive)
